In general, IC50 refers to the concentration that gives 50% inhibition.

From patent US8119630B2 (Arrow Therapeutics Limited, priority 2002, dated 2012) come the findings set out here.

For data set [1], the system named is RSV. Put plainly: XTT assay, RSV-infected Hep-2 cells. The data set is classed as cell-based, Respiratory Syncytial Virus (RSV). The following applies: Table 2, Examples 75 to 82 and 125 to 184, Hep-2 cells infected with RSV, 6 days at 37° C. How it is done:
Examples 75 to 82 and 125 to 184 were tested according to the protocol described below.
(§1) The inner 60 wells of 96 well tissue culture plates were seeded with Hep-2 cells at 4×10^4 cells/well for compound activity and toxicity studies in 100 μl of medium and incubated at 37° C. overnight or until nearing confluency.
Cells were infected with 25 μl RSV previously titrated to give 80% cell kill. To each well 25 μM of test compound were added. The final DMSO concentration was 0.5%. Some 200 μl of sterile distilled water were added to the outer wells of the plate and incubated at 37° C. for 6 days. Some 0.25 μl/ml PMS were added to stock […] solution, final conc. 25 μM PMS. Then 25 μl warmed XTT/PMS solution were added to each well and incubated for 1 hour at 37° C.
Maximum OD450nm reading (uninfected, untreated control cells) corresponded to 100% inhibition. Minimum OD450nm readings (infected control cells) corresponded to 0% inhibition. Log 10 concentration was plotted against OD450nm and IC50 values were calculated from either reading 50% value from graph or using regression analysis.
On the technique in general: Tetrazolium assays rely on reduction of a dye to a coloured formazan, in cell work by metabolically active cells.

The subject of a further data set is Hep-2 cells. Description: Toxicity studies (XTT), Hep-2 cells. It counts as cell-based. Set-up: TC50 (6d): unit not given beside the values. The conditions noted are these: for TC50 (6d): Table 2, Examples 75 to 82 and 125 to 184, 6d, in µM. The procedure: as §1
Cells were infected with 25 μl RSV previously titrated to give 80% cell kill. To each well 25 μM of test compound were added. The final DMSO concentration was 0.5%. […] Some 0.25 μl/ml PMS were added to stock […] solution, final conc. 25 μM PMS. Then 25 μl warmed XTT/PMS solution were added to each well and incubated for 1 hour at 37° C.

The test system of a further data set is Vero cells. Description: Simultaneous toxicity investigation (XTT), Vero cells. The data set is classed as cell-based. Set-up: unit not given here. The following applies: for TC50 (2d): Table 2, Examples 83 to 124, 2d; for TC50 (6d): Table 2, Examples 83 to 124, 6d. The procedure:
The inner 60 wells of 96 well tissue culture plates were seeded with Vero cells at 3×10^4 cells/well (1×10^4 cells/well for toxicity studies) in 100 or 150 μl of medium and incubated at 37° C. overnight or until nearing confluency. For primary screen, 25 μl compounds were added directly to 100 μl medium in single wells to duplicate plates. A third plate was prepared for simultaneous toxicity investigation.
For follow-up investigation, 70 μl of compound in duplicate wells were added directly to culture medium at 3.2× final concentration and ½ log serially diluted down columns of plate. A duplicate plate was prepared for simultaneous toxicity investigation.
Cells were infected with 25 μl RSV to give m.o.i.≈0.2. […] Some 0.25 μl/ml PMS were added to stock XTT solution, final conc. […]. Then 25 μl warmed XTT/PMS solution were added to each well and incubated for 5 hours at 37° C. Plates were shaken (DynaTech Vari-Shaker) vigorously for 10 mins and allowed to cool for 15 mins before sealing. Absorbance at 450 nm was measured and data analysed using Microsoft Excel software.

The test system of data set [2] is RSV. Put plainly: XTT assay, RSV-infected Vero cells. The conditions noted are these: Vero cells infected with RSV, m.o.i.≈0.2, 6 days at 33° C. The data set is classed as cell-based, Respiratory Syncytial Virus (RSV). Put shortly: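 Vero cells infected with RSV at m.o.i.≈0.2 in presence of serially ½-log diluted compound, incubated 6 days at 33 °C. Viability read by XTT/PMS (5 h, 37 °C) at OD450; uninfected untreated cells = 100%, infected controls = 0% inhibition. IC50 from graph or regression; parallel uninfected plates for toxicity.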

Where [3] appears, read: human respiratory syncytial virus, 144 h.
[4] abbreviates: human respiratory syncytial virus, Vero, 144 h, read-out: XTT IC50 (uM), Table 2, Examples 83 to 124.
Where [5] appears, read: Table 2, Examples 83 to 124, read-out: XTT IC50.

As to “1-(2-Oxo-5-phenyl-2,3-dihydro-1H-benzo[e][1,4]diazepin-3-yl)-3-m-tolyl-urea [Example 141]”, the IC50 with RSV [1] is 4.3 µM. Also, the “TC50 (6d)” value in the data set with Hep-2 cells is reported as over 50.

“5-Acetyl-2-ethoxy-N-(2-oxo-5-phenyl-2,3-dihydro-1H-benzo[e][1,4]diazepin-3-yl)-benzamide [Example 76a]” returned an IC50 in the data set on RSV [1] of 3.5 µM. Also, the “TC50 (6d)” value in the data set on Hep-2 cells stood at 64.

The compound “5-Methyl-furan-2-carboxylic acid (2-oxo-5-phenyl-2,3-dihydro-1H-benzo[e][1,4]diazepin-3-yl)-amide [Example 161]” yielded an IC50 in the data set with RSV [1] of 2 µM. The TC50 (2d) with Hep-2 cells (Table 2, Examples 75 to 82 and 125 to 184, 2d) was 100 µM. In addition, the “TC50 (6d)” value in the data set on Hep-2 cells stood at 60.

`COc1cc(S(C)(=O)=O)ccc1C(=O)NC1N=C(c2ccccc2)c2ccccc2NC1=O` (stereo not drawn) [Example 75a, 4-Methanesulfonyl-2-methoxy-N-(2-oxo-5-phenyl-2,3-dihydro-1H-benzo[e][1,4]diazepin-3-yl)-benzamide] showed an IC50 in the data set with RSV [1] (setting [3]) of 2.4 µM.

`COc1cc(S(C)(=O)=O)ccc1C(=O)N[C@H]1N=C(c2ccccc2)c2ccccc2NC1=O` [Example 75b, (S)-4-Methanesulfonyl-2-methoxy-N-(2-oxo-5-phenyl-2,3-dihydro-1H-benzo[e][1,4]diazepin-3-yl)-benzamide] gave an IC50 in the data set with RSV [1] (setting [3]) of 0.6 µM. The “TC50 (6d)” value in the data set with Hep-2 cells is over 50.

As to `CCOc1ccc(C(C)=O)cc1C(=O)N[C@H]1N=C(c2ccccc2)c2ccccc2NC1=O` [Example 76b, (S)-5-Acetyl-2-ethoxy-N-(2-oxo-5-phenyl-2,3-dihydro-1H-benzo[e][1,4]diazepin-3-yl)-benzamide], it took 1.2 µM to reach half-maximal inhibition with RSV [1] (setting [3]) (IC50). Also, the “TC50 (6d)” value in the data set on Hep-2 cells is reported as over 50.

For the compound `O=C(NC1N=C(c2ccccc2)c2ccccc2NC1=O)c1cc(F)cc2c1OCOC2` (stereo not drawn) [Example 77a, 6-Fluoro-4H-benzo[1,3]dioxine-8-carboxylic acid (2-oxo-5-phenyl-2,3-dihydro-1H-benzo[e][1,4]diazepin-3-yl)-benzamide], half-maximal inhibition in the data set on RSV [1] (IC50) required 4.6 µM. In the data set on Hep-2 cells, the “TC50 (6d)” value is reported as over 50.

For `O=C(N[C@H]1N=C(c2ccccc2)c2ccccc2NC1=O)c1cc(F)cc2c1OCOC2` [Example 77b, (S)-6-Fluoro-4H-benzo[1,3]dioxine-8-carboxylic acid (2-oxo-5-phenyl-2,3-dihydro-1H-benzo[e][1,4]diazepin-3-yl)-amide], the IC50 with RSV [1] (setting [3]) worked out at 0.5 µM. The “TC50 (6d)” value in the data set with Hep-2 cells is reported as 33.2.

`COc1cc(C(F)(F)F)ccc1C(=O)N[C@H]1N=C(c2ccccc2)c2ccccc2NC1=O` [Example 78, (S)-2-Methoxy-N-(2-oxo-5-phenyl-2,3-dihydro-1H-benzo[e][1,4]diazepin-3-yl)-4-trifluoromethyl-benzamide] came in with an IC50 with RSV [1] (setting [3]) of 2.7 µM. Besides, in the data set with Hep-2 cells, the “TC50 (6d)” value worked out at 32.5.

In the data set with RSV [1], `O=C(NC1N=C(c2ccccc2)c2ccccc2NC1=O)c1cc(F)c(F)cc1F` (stereo not drawn) [Example 79a, 2,4,5-Trifluoro-N-(2-oxo-5-phenyl-2,3-dihydro-1H-benzo[e][1,4]diazopin-3-yl)-benzamide] returned an IC50 of 8 µM. The “TC50 (6d)” value with Hep-2 cells is given as 65.

For `O=C(N[C@H]1N=C(c2ccccc2)c2ccccc2NC1=O)c1cc(F)c(F)cc1F` [Example 79b, (S)-2,4,5-Trifluoro-N-(2-oxo-5-phenyl-2,3-dihydro-1H-benzo[e][1,4]diazepin-3-yl)-benzamide], half-maximal inhibition with RSV [1] (setting [3]) (IC50) was put at 5.8 µM. Also, the “TC50 (6d)” value in the data set on Hep-2 cells is listed as over 50.

Consider `O=C(NC1N=C(c2ccccc2)c2ccccc2NC1=O)c1ccccc1O` (stereo not drawn) [Example 80a, 2-Hydroxy-N-(2-oxo-5-phenyl-2,3-dihydro-1H-benzo[e][1,4]diazepin-3-yl)-benzamide], for which the IC50 in the data set with RSV [1] (setting [3]) is 8.7 µM. Besides, the “TC50 (6d)” value with Hep-2 cells worked out at 33.

`O=C(N[C@H]1N=C(c2ccccc2)c2ccccc2NC1=O)c1ccccc1O` [Example 80b, (S)-2-Hydroxy-N-(2-oxo-5-phenyl-2,3-dihydro-1H-benzo[e][1,4]diazepin-3-yl)-benzamide] yielded an IC50 in the data set on RSV [1] (setting [3]) of 2 µM. In the data set with Hep-2 cells, the “TC50 (6d)” value is over 50.

With `O=C(NC1N=C(c2ccccc2)c2ccccc2NC1=O)c1cccc2cc[nH]c12` (stereo not drawn) [Example 81a, 1H-Indole-7-carboxylic acid (2-oxo-5-phenyl-2,3-dihydro-1H-benzo[e][1,4]diazepin-3-yl)-amide], it took 8.4 µM to reach half-maximal inhibition in the data set with RSV [1] (setting [3]) (IC50). Also, the “TC50 (6d)” value with Hep-2 cells was determined as 63.

`O=C(N[C@H]1N=C(c2ccccc2)c2ccccc2NC1=O)c1cccc2cc[nH]c12` [Example 81b]: in the data set on RSV [1], half-maximal inhibition (IC50) was put at 1.2 µM. Further, the “TC50 (6d)” value in the data set on Hep-2 cells stood at 35.6.

As for `O=C(Nc1cccc(Cl)c1Cl)NC1N=C(c2ccccc2)c2ccccc2NC1=O` (stereo not drawn) [Example 119, 1-(2,3-Dichloro-phenyl)-3-(2-oxo-5-phenyl-2,3-dihydro-1H-benzo[e][1,4]diazepin-3-yl)-urea], in the data set with Vero cells, the “TC50 (2d)” value is listed as over 100 and the “TC50 (6d)” value is listed as 30. In the data set on RSV [2] (setting [4]), the IC50 came to 2 µM.

For the compound `Cc1cccc(C)c1NC(=O)NC1N=C(c2ccccc2)c2ccccc2NC1=O` (stereo not drawn) [Example 120, 1-(2,6-Dimethyl-phenyl)-3-(2-oxo-5-phenyl-2,3-dihydro-1H-benzo[e][1,4]diazepin-3-yl)-urea], in the data set on Vero cells, the “TC50 (2d)” value is reported as over 100 and the “TC50 (6d)” value is given as 60. Besides, in the data set on RSV [2] (setting [4]), the IC50 stood at 6 µM.

As to `O=C(Nc1ccc([N+](=O)[O-])cc1)NC1N=C(c2ccccc2)c2ccccc2NC1=O` (stereo not drawn) [Example 122, 1-(4-Nitro-phenyl)-3-(2-oxo-5-phenyl-2,3-dihydro-1H-benzo[e][1,4]diazepin-3-yl)-urea], in the data set on Vero cells, the “TC50 (2d)” value turned out to be 60 and the “TC50 (6d)” value was found to be 20. Further, the IC50 with RSV [2] (setting [4]) amounted to 0.4 µM.

As to `CSc1ccccc1NC(=O)NC1N=C(c2ccccc2)c2ccccc2NC1=O` (stereo not drawn) [Example 123, 1-(2-Methylsulfanyl-phenyl)-3-(2-oxo-5-phenyl-2,3-dihydro-1H-benzo[e][1,4]diazepin-3-yl)-urea], in the data set on Vero cells, the “TC50 (2d)” value is over 100 and the “TC50 (6d)” value was 100. Further, in the data set with RSV [2] (setting [4]), the IC50 was 2 µM.

In the case of `O=C(Nc1c(Cl)cccc1Cl)NC1N=C(c2ccccc2)c2ccccc2NC1=O` (stereo not drawn) [Example 124, 1-(2,6-Dichloro-phenyl)-3-(2-oxo-5-phenyl-2,3-dihydro-1H-benzo[e][1,4]diazepin-3-yl)-urea], in the data set with Vero cells, the “TC50 (2d)” value is reported as 70 and the “TC50 (6d)” value is 60. In addition, the IC50 with RSV [2] (setting [4]) was 5 µM.

For the compound “N-[5-(3-Chloro-phenyl)-2-oxo-5-phenyl-2,3-dihydro-1H-benzo[e][1,4]diazepin-3-yl]-2-nitro-benzamide [Example 101]”, in the data set with Vero cells, the “TC50 (2d)” value amounted to 100 and the “TC50 (6d)” value came out at 100. In the data set on RSV [2] (setting [5]), the IC50 is 2.5 µM.

Consider “N-[5-(3-Chloro-phenyl)-2-oxo-5-phenyl-2,3-dihydro-1H-benzo[e][1,4]diazepin-3-yl]-4-methoxy-benzamide [Example 100]”, for which, in the data set with Vero cells, the “TC50 (2d)” value is over 100 and the “TC50 (6d)” value is 100. Besides, the IC50 in the data set on RSV [2] (setting [5]) was found to be 4 µM.

As for “N-[5-(3-Chloro-phenyl)-2-oxo-5-phenyl-2,3-dihydro-1H-benzo[e][1,4]diazepin-3-yl]-4-nitro-benzamide [Example 102]”, in the data set with Vero cells, the “TC50 (2d)” value was over 100 and the “TC50 (6d)” value is on record as over 100. In addition, in the data set with RSV [2] (setting [5]), the IC50 was determined as 7 µM.

As to “N-[5-(3-Methoxy-phenyl)-2-oxo-5-phenyl-2,3-dihydro-1H-benzo[e][1,4]diazepin-3-yl]nitro-benzamide [Example 110]”, in the data set on Vero cells, the “TC50 (2d)” value was over 100 and the “TC50 (6d)” value was over 100. In addition, the IC50 in the data set with RSV [2] (setting [5]) worked out at 5 µM.
